Where two headings read alike, the source gives them in different places.

What all share (test): biochemical
Common to all, as to format: biochemical

Assay [1] addresses 363 human kinases (including Aurora A/B/C) (Homo sapiens, UniProt P49759). The settings on record: CLK1, [ATP] 2.5 µM; for remaining activity at 0.1 µM: 100 nM; for remaining activity at 0.1 µM / remaining activity at 0.5 µM: read-out: % Enzyme Activity (relative to DMSO controls).
Description: (§1) However, the Aurora A/B selectivity ratios derived from our in vitro and in vivo data can be compared to prioritize inhibitors.
The target in assay [2] is T1, 363 human kinases (including Aurora A/B/C) (Homo sapiens, UniProt Q96BR1).
T1 sequence (Q96BR1 1-496): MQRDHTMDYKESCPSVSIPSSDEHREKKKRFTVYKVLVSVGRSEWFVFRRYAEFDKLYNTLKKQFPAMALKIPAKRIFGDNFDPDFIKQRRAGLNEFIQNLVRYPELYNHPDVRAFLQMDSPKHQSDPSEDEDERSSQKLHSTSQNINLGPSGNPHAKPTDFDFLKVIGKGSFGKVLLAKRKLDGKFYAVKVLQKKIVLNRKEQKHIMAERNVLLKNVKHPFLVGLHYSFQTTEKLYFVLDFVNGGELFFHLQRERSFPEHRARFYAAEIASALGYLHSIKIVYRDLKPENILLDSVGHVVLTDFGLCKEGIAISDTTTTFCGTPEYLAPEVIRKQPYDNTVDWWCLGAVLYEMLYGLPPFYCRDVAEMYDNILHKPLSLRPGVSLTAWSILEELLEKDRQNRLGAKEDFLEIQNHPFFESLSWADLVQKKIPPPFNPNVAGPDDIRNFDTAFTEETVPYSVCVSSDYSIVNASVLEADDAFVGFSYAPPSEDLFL
The settings on record: SGK3/SGKL; for remaining activity at 0.1 µM: 100 nM; for remaining activity at 0.1 µM / remaining activity at 0.5 µM: read-out: % Enzyme Activity (relative to DMSO controls).
Description: as §1

The target in assay [3] is 363 human kinases (including Aurora A/B/C) (Homo sapiens, UniProt O00311). The settings on record: CDC7/DBF4, [ATP] 15 µM; for remaining activity at 0.1 µM: 100 nM; for remaining activity at 0.1 µM / remaining activity at 0.5 µM: read-out: % Enzyme Activity (relative to DMSO controls).
Chain of 363 human kinases (including Aurora A/B/C) (Homo sapiens, UniProt O00311) (O00311 whole entry): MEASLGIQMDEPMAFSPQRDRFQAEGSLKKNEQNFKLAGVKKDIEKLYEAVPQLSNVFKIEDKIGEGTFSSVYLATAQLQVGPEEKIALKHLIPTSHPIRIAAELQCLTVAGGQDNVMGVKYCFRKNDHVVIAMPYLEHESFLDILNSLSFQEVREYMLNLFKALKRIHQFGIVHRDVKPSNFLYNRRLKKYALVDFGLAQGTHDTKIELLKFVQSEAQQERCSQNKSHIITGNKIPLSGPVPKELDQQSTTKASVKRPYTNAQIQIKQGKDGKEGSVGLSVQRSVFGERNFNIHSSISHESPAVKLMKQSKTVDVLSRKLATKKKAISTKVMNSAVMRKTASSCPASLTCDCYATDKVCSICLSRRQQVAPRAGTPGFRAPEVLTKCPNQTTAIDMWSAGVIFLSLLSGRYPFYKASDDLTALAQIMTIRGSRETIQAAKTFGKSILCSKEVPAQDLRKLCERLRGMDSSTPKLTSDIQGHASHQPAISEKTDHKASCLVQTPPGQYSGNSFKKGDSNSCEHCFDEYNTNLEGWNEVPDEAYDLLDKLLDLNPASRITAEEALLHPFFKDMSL
Description: as §1
Assay [4] concerns the target 363 human kinases (including Aurora A/B/C) (Homo sapiens, UniProt P80192). The settings on record: MLK1/MAP3K9; for remaining activity at 0.1 µM: 100 nM; for remaining activity at 0.1 µM / remaining activity at 0.5 µM: read-out: % Enzyme Activity (relative to DMSO controls).
Description: as §1
The target of assay [5] is 363 human kinases (including Aurora A/B/C) (Homo sapiens, UniProt P24941). Conditions: for remaining activity at 0.1 µM: 100 nM; for remaining activity at 0.1 µM / remaining activity at 0.5 µM: read-out: % Enzyme Activity (relative to DMSO controls); for remaining activity at 0.5 µM / % Enzyme Activity (relative to DMSO controls): 500 nM.
Description: as §1
Assay [6] addresses T2, 363 human kinases (including Aurora A/B/C) (Homo sapiens, UniProt P51955).
T2 sequence (P51955 1-445): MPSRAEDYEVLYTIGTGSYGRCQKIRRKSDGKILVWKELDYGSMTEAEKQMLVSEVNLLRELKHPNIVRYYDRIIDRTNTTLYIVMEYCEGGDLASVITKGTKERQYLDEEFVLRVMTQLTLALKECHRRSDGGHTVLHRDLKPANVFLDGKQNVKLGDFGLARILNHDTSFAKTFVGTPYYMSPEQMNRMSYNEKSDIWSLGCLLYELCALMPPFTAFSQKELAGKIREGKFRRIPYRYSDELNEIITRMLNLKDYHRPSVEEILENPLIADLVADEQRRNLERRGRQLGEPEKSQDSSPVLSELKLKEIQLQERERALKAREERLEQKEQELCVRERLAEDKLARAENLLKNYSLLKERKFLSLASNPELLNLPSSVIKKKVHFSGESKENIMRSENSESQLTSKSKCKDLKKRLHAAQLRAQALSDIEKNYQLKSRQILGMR
The settings on record: NEK2; for remaining activity at 0.1 µM: 100 nM; for remaining activity at 0.1 µM / remaining activity at 0.5 µM: read-out: % Enzyme Activity (relative to DMSO controls).
Description: as §1

Assay [7] concerns the target T3, 363 human kinases (including Aurora A/B/C) (Homo sapiens, UniProt Q9Y2U5).
T3 sequence (Q9Y2U5 1-619): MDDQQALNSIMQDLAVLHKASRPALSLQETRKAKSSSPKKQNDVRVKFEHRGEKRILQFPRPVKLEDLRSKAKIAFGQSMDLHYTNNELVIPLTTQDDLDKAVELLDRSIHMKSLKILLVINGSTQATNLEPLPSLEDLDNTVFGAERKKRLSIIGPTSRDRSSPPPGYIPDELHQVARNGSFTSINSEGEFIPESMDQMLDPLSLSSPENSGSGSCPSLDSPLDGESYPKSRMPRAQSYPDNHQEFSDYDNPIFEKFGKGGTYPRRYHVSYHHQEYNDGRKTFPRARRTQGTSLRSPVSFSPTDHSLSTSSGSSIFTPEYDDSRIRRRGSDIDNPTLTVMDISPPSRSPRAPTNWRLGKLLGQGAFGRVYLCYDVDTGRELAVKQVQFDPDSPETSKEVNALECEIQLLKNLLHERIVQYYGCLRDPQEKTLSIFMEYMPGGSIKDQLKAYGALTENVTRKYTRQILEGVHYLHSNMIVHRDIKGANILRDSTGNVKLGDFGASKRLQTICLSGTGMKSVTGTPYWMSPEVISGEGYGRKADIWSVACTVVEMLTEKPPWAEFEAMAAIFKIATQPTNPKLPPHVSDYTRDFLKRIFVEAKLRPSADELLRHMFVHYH
The settings on record: MEKK2; for remaining activity at 0.1 µM: 100 nM; for remaining activity at 0.1 µM / remaining activity at 0.5 µM: read-out: % Enzyme Activity (relative to DMSO controls).
Description: as §1

The target in assay [8] is 363 human kinases (including Aurora A/B/C) (Homo sapiens, UniProt Q9Y2K2). Conditions: SIK3; for remaining activity at 0.1 µM: 100 nM; for remaining activity at 0.1 µM / remaining activity at 0.5 µM: read-out: % Enzyme Activity (relative to DMSO controls).
Chain of 363 human kinases (including Aurora A/B/C) (Homo sapiens, UniProt Q9Y2K2) (Q9Y2K2 whole entry): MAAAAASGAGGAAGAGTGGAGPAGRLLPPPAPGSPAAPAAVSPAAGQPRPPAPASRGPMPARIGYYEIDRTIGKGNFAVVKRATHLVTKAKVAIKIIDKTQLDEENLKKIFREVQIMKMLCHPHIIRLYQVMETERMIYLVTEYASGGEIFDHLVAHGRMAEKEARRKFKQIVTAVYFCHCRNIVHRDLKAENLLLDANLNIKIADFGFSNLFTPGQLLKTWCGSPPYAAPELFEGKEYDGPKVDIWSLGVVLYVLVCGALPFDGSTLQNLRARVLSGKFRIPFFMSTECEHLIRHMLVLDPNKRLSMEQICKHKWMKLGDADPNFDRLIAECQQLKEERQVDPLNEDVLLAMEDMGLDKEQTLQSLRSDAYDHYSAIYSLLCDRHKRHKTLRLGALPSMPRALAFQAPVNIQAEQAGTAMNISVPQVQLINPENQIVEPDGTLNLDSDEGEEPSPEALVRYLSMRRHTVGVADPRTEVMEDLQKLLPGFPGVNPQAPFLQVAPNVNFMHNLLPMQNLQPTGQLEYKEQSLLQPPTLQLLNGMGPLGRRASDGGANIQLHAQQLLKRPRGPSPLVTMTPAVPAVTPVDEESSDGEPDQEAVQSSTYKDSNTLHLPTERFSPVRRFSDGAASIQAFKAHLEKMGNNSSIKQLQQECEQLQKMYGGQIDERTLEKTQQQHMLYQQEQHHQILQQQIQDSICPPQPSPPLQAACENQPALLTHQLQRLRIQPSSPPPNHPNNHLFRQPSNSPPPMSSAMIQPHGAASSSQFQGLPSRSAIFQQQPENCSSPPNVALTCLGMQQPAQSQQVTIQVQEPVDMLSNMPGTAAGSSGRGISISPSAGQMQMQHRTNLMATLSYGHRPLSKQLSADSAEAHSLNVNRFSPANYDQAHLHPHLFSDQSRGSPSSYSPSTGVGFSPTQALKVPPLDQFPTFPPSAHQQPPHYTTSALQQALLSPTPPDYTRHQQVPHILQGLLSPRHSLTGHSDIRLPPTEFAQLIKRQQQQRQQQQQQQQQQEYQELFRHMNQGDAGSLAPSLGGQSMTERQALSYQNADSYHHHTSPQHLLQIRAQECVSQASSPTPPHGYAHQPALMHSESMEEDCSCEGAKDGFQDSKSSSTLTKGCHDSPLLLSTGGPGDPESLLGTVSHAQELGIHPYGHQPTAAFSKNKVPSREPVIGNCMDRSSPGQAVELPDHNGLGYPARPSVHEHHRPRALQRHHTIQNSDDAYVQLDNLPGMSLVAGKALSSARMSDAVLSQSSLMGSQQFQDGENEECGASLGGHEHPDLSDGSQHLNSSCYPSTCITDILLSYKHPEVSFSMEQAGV
Description: as §1
Assay [9] addresses 363 human kinases (including Aurora A/B/C) (Homo sapiens, UniProt Q9BYP7). The settings on record: WNK3; for remaining activity at 0.1 µM: 100 nM; for remaining activity at 0.1 µM / remaining activity at 0.5 µM: read-out: % Enzyme Activity (relative to DMSO controls).
Description: as §1

Chain of 363 human kinases (including Aurora A/B/C) (Homo sapiens, UniProt Q9BYP7) (Q9BYP7 whole entry): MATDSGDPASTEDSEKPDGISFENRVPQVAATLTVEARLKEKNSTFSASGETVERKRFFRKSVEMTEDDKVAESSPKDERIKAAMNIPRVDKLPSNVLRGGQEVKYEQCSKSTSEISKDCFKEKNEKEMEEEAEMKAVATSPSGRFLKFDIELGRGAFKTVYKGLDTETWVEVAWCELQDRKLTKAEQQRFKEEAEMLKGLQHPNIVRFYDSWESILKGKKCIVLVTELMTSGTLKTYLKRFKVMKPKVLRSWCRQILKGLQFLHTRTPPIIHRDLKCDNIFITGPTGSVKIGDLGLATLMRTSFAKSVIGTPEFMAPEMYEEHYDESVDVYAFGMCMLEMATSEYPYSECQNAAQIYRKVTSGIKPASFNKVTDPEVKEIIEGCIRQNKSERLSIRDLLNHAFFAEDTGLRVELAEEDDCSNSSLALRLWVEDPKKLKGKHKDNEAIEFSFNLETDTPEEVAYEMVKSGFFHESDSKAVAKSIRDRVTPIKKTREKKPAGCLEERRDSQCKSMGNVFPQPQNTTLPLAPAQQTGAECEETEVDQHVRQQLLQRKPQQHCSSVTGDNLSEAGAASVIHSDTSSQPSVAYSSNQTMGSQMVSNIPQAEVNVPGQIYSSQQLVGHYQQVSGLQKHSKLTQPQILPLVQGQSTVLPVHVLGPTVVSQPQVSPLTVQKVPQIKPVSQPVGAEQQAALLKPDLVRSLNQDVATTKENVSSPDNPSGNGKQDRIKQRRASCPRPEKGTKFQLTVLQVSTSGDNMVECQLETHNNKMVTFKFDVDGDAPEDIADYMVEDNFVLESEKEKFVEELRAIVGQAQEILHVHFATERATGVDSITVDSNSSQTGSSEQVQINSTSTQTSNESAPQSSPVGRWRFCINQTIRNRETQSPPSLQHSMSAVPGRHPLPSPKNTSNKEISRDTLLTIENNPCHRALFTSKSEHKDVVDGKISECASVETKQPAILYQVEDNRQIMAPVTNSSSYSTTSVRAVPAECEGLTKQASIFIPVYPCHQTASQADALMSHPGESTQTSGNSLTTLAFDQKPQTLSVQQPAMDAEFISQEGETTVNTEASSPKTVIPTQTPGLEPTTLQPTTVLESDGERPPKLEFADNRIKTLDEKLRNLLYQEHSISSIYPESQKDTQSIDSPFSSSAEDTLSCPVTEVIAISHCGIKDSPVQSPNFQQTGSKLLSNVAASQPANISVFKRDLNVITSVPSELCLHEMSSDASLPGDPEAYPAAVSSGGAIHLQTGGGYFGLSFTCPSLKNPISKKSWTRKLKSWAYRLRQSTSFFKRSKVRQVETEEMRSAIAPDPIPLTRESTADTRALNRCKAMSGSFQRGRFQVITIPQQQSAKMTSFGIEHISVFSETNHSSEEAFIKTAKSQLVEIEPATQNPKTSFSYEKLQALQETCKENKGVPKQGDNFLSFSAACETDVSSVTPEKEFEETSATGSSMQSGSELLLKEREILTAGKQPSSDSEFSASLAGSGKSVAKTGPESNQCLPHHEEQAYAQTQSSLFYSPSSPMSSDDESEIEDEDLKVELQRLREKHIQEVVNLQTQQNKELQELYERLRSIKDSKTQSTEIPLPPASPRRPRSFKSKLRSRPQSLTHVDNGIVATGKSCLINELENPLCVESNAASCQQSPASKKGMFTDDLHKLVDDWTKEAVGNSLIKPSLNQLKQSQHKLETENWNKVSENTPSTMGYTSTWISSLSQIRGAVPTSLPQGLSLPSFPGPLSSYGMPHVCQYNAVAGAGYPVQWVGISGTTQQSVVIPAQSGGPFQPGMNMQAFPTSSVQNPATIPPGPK
Chain of 363 human kinases (including Aurora A/B/C) (Homo sapiens, UniProt P49759) (P49759 whole entry): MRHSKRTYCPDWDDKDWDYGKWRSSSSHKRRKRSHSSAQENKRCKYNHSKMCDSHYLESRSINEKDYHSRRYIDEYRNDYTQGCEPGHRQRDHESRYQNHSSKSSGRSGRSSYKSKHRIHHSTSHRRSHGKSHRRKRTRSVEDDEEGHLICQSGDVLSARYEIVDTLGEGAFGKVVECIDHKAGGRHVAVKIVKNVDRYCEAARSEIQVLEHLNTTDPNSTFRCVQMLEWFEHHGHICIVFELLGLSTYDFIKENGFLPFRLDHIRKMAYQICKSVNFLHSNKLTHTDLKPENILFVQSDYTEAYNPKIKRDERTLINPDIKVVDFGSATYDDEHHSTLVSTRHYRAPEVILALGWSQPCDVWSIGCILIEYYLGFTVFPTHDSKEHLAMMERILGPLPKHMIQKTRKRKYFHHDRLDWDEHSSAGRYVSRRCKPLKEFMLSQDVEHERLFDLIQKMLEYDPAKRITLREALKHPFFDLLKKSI

For the compound `CCn1cc(-c2ccnc3[nH]c(-c4cccc(CN(C)C)c4)cc23)c(-c2ccc(NC(=O)N(C)C)cc2)n1` [GSK1070916], the remaining activity at 0.1 µM amounted to 114% in [1]; 105% in assay [2]; 95.4% in [3]; 97.6% in assay [4]; 89.8% in [5] (CDK2/Cyclin A1, [ATP] 100 µM); 104% in assay [5] (CDK2/cyclin A, [ATP] 100 µM). In addition, the remaining activity at 0.1 µM in [5] (CDK2/cyclin E, [ATP] 5 µM) turned out to be 93%; in assay [5] (CDK2/cyclin O, [ATP] 30 µM) it was 94.7%; in assay [6], 110%; in assay [7], 81.7%; in [8], 87.8%; in assay [9], 110%.

For the compound `O=C(O)[C@]1(Cc2cccc(Nc3nccs3)n2)CC[C@@H](Oc2cccc(Cl)c2F)CC1` [MK-5108], the remaining activity at 0.1 µM in assay [1] amounted to 68.1%; in [2], 106%; in assay [3], 103%; in [4], 88.5%; in assay [5] (CDK2/Cyclin A1, [ATP] 100 µM) it was 100%; in assay [5] (CDK2/cyclin A, [ATP] 100 µM) it was 97.7%. The remaining activity at 0.1 µM in assay [5] (CDK2/cyclin E, [ATP] 5 µM) was 90.3%; in assay [5] (CDK2/cyclin O, [ATP] 30 µM), 88.6%; in assay [6], 84.3%; in assay [7], 102%; in assay [8], 97.3%; in [9], 91.9%. Also, the remaining activity at 0.5 µM came to 29.1% in assay [1] (500 nM); 105% in [2] (500 nM); 96.2% in [3] (500 nM); 64.3% in [4] (500 nM); 73.4% in assay [5] (CDK2/Cyclin A1, [ATP] 100 µM); 75.7% in assay [5] (CDK2/cyclin A, [ATP] 100 µM). Besides, the remaining activity at 0.5 µM was 83.3% in assay [5] (CDK2/cyclin E, [ATP] 5 µM); 84.7% in [5] (CDK2/cyclin O, [ATP] 30 µM); 105% in assay [6] (500 nM); 83.9% in assay [7] (500 nM); 103% in [8] (500 nM); 63.4% in [9] (500 nM).

Take `O=C(c1cccc(Cl)c1F)N1CCN(Cc2cccc(Nc3nccs3)n2)CC1` [MK-8745]: the “% Enzyme Activity (relative to DMSO controls)” value in assay [1] (500 nM) is recorded as 91.67%; in assay [2] (500 nM), 98.27%; in assay [3] (500 nM), 101.19%; in [4] (500 nM) it was 101.78%; in [5] (CDK2/Cyclin A1, [ATP] 100 µM), 75.87%; in [5] (CDK2/cyclin A, [ATP] 100 µM) it was 83.95%. Also, the “% Enzyme Activity (relative to DMSO controls)” value in assay [5] (CDK2/cyclin E, [ATP] 5 µM) worked out at 85.62%; in [5] (CDK2/cyclin O, [ATP] 30 µM), 90.54%; in assay [6] (500 nM), 103.20%; in assay [7] (500 nM) it was 96.27%; in [8] (500 nM) it was 91.26%; in [9] (500 nM) it was 106.70%. Moreover, the remaining activity at 0.5 µM was found to be 92.5% in assay [1] (500 nM); 99.7% in assay [2] (500 nM); 103% in assay [3] (500 nM); 102% in assay [4] (500 nM); 79.6% in [5] (CDK2/Cyclin A1, [ATP] 100 µM); 85.1% in [5] (CDK2/cyclin A, [ATP] 100 µM). In addition, the remaining activity at 0.5 µM worked out at 86.3% in [5] (CDK2/cyclin E, [ATP] 5 µM); 90.6% in assay [5] (CDK2/cyclin O, [ATP] 30 µM); 104% in assay [6] (500 nM); 97.5% in assay [7] (500 nM); 93.5% in [8] (500 nM); 108% in assay [9] (500 nM).
